Test results reported in US11806366B2, “Peptides and combination of peptides for use in immunotherapy against epithelial ovarian cancer and other cancers” (Immatics Biotechnologies GmbH, priority 2015, dated 2023).

Test system: CD8 T cells from blood of healthy donors
Experiment: Immunogenicity analysis of HLA class I ligands: aAPC priming of CD8 T cells, MHC-multimer staining
Type: cell-based, human
Details: immunogenicity of MUC16/CA-125 ligands, HLA allotype as in Table 11
Description: Priming of peptide specific cytotoxic lymphocytes (CTLs) was conducted using an established protocol involving artificial antigen presenting cells (aAPCs) (30). aAPCs consisted of streptavidin-coated polystyrene beads (5.6 μm in diameter; Bangs Laboratories, Fishers, Ind.). […] T cells were isolated from whole blood of healthy donors using a CD8 magnetic cell isolation kit (Miltenyi). One million T-cells per well were cultured in 96 well plates (Corning, Corning, N.Y., USA) and stimulated with the same number of loaded aAPCs in the presence of 5 ng/ml IL-12 (PromoCell, Heidelberg, Germany). T cells were stimulated 3 times in total with weekly stimulation interval. 40 U/ml IL-2 was added 2 days subsequent to each stimulation. T-cell priming was assessed by MHC-multimer staining one week after the last stimulation round.
For the applicability of peptide vaccines immunogenicity is a major imperative. In order to evaluate the immunogenic potential of the identified HLA ligands the inventors used a T-cell priming protocol involving artificial antigen presenting cells and T cells isolated from blood of healthy donors. […] This nearly 80% recognition rate verifies the presence of naïve MUC16 recognizing T cells in the human population. Similar results have been obtained for other TOP100 antigens (e.g. IDO1, LGALS1).

Substance	positive/tested donors
549 (TYSEKTTLF; listed as Homo sapiens) [compound 549]	2/2
12 (EVISSRGTSM; listed as Homo sapiens) [compound 12]	1/3
48 (SPHPVTALL; listed as Homo sapiens) [compound 48]	0/1
34 (LPHSEITTL; listed as Homo sapiens) [compound 34]	0/2
50 (SPQNLRNTL; listed as Homo sapiens) [compound 50]	1/1
7 (DALVLKTV; listed as Homo sapiens) [compound 7]	1/3
5 (AVTNVRTSI; listed as Homo sapiens) [compound 5]	1/3
18 (FQRQGQTAL; listed as Homo sapiens) [compound 18]	1/6
53 (SPSKAFASL; listed as Homo sapiens) [compound 53]	2/2
63 (SVLADLVTTK; listed as Homo sapiens) [compound 63]	0/1
547 (IITEVITRL; listed as Homo sapiens) [compound 547]	3/10
72 (TPGNRAISL; listed as Homo sapiens) [compound 72]	2/2
10 (ERSPVIQTL; listed as Homo sapiens) [compound 10]	1/2
56 (SQGFSHSQM; listed as Homo sapiens) [compound 56]	4/5
2 (STETSTVLY; listed as Homo sapiens) [compound 2]	0/2
77 (VPRSAATTL; listed as Homo sapiens) [compound 77]	1/2
14 (EVTSSGRTSI; listed as Homo sapiens) [compound 14]	2/3
548 (KMISAIPTL; listed as Homo sapiens) [compound 548]	4/6
23 (GTSGTPVSK; listed as Homo sapiens) [compound 23]	0/5
11 (ETILTFHAF; listed as Homo sapiens) [compound 11]	2/2
8 (DPYKATSAV; listed as Homo sapiens) [compound 8]	3/3
13 (EVITSSRTTI; listed as Homo sapiens) [compound 13]	1/1
62 (STSQEIHSATK; listed as Homo sapiens) [compound 62]	2/6
